From patent publication US12122778B2, “Activating pyruvate kinase R” (Novo Nordisk Health Care AG, priority 2018, dated 2024)

How the values were obtained:
PKR(R510Q) = PKR(R510Q) (Homo sapiens, UniProt P30613, R510Q); assay: Luminescence Biochemical Assay (Kinase Glo Plus), PKR R510Q mutant; conditions: without FBP; for activation at 1.54 µM: 1.54 μM compound, read-out: AC50 LUM KGP woFBP % Fold@1.54 μM mean; for AC50: read-out: AC50 LUM KGP woFBP AC50 μM gmean; for Emax: read-out: AC50 LUM KGP woFBP MAX % FOLD mean
PKR(G332S) = PKR(G332S) (Homo sapiens, UniProt P30613, G332S); assay: Luminescence Biochemical Assay (Kinase Glo Plus), PKR G332S mutant; conditions: with FBP; for activation at 1.54 µM: 1.54 μM compound, read-out: AC50 LUM KGP FBP % Fold@1.54 μM mean; for AC50: read-out: AC50 LUM KGP FBP AC50 μM gmean (column A); for Emax: read-out: AC50 LUM KGP FBP MAX % FOLD mean
Experimental: In some embodiments, a PKR Activating Compound can have: (1) an AC50 value of less than 0.1 μM (e.g., compounds with AC50 values of “+++” in Table 13), 0.1-1.0 μM (e.g., compounds with AC50 values of “++” in Table 13), or 1.01-40 μM (e.g., compounds with AC50 values of “+” in Table 13); (2) a MAX % Fold of 75%-250%, 250-500%, or 75%-500%; and/or (3) a % Fold@1.54 μM of 75%-250%, 250-500%, or 75%-500%. In some embodiments, a PKR Activating Compound has (1) an AC50 value of less than 1.0 μM; (2) a MAX % Fold of 75%-500%; and/or (3) a % Fold@1.54 μM of 75%-500%.
The phosphorylation of Adenosine-5′-diphosphate (ADP) by various mutants of PKR was determined by the Kinase Glo Plus Assay (Promega) in the presence or absence of FBP [D-Fructose-1,6-diphosphate; BOC Sciences, CAS: 81028-91-3] as follows. Unless otherwise indicated, all reagents were purchased from Sigma-Aldrich. All reagents were prepared in buffer containing 50 mM Tris-HCl, 100 mM KCl, 5 mM MgCl2, and 0.01% Triton X100, 0.03% BSA, and 1 mM DTT. Enzyme and PEP [Phospho(enol) pyruvic acid] were added at 2× to all wells of an assay-ready plate containing serial dilutions of test compounds or DMSO vehicle. Final enzyme concentrations for PKR(wt), PKR(R510Q), and PKR(G332S) were 0.8 nM, 0.8 nM, and 10 nM respectively. Final PEP concentration was 100 μM. The Enzyme/PEP mixture was incubated with compounds for 30 minutes at RT before the assay was initiated with the addition of 2×ADP [Adenosine-5′-diphosphate] and KinaseGloPlus. Final concentration of ADP was 100 μM. […] For assays containing FBP, that reagent is added at 30 μM upon reaction initiation. Reactions were allowed to progress for 45 minutes at RT until luminescence was recorded by the BMG PHERAstar FS Multilabel Reader. All compounds were tested in triplicate at concentrations ranging from 42.5 μM to 2.2 nM in 0.83% DMSO.
Luminescence values were converted to % Fold increase by normalizing to the average of the DMSO control and multiplying by 100. Max, min, slope and AC50 were determined by the standard four parameter fit algorithm of ActivityBase XE Runner. Compounds were evaluated with three parameters—AC50, MAX % Fold, and % Fold@1.54 μM (FIG. 1). The AC50 value for a compound is the concentration (μM) corresponding to the midway between the maximum and minimum values of the four parameter logistic curve fit (i.e., at which the % fold increase along the four parameter logistic curve fit is halfway between MAX % Fold and MIN % Fold (% Fold Midpoint)), MAX % Fold is the highest fold increase observed at any concentration of compound, and % Fold@1.54 μM is the fold increase at a compound concentration of 1.54 μM. The parameter % Fold@1.54 μM was selected to capture elements of both the AC50 and MAX % Fold and to provide a ranking based on both potency and effect. The compound concentration of 1.54 μM was chosen as one that can optimally differentiate the set of compounds based on the range of activities observed.
As set forth in Table 13 below, AC50 values (columns A, D, G) are defined as follows: ≤0.1 μM (+++); >0.1 μM and ≤1.0 μM (++); >1.0 μM and ≤40 μM (+); >40 μM (0). Max % FOLD values (columns B, E, H) are defined as follows: ≤75% (+); >75% and ≤250% (++); >250% and ≤500% (+++). % Fold@1.54 μM values (columns C, F, J) are defined as follows: ≤75% (+); >75% and ≤250% (++); >250% and ≤50000 (+++).

PKR(wt) = PKR(wt) (Homo sapiens, UniProt P30613); assay: Luminescence Biochemical Assay (Kinase Glo Plus), wild type PKR; conditions: without FBP; for activation at 1.54 µM: 1.54 μM compound, read-out: AC50 LUM KGP woFBP % Fold@1.54 μM mean; for AC50: read-out: AC50 LUM KGP woFBP AC50 μM gmean; for Emax: read-out: AC50 LUM KGP woFBP MAX % FOLD mean
PKR(wt), sequence (P30613 whole entry): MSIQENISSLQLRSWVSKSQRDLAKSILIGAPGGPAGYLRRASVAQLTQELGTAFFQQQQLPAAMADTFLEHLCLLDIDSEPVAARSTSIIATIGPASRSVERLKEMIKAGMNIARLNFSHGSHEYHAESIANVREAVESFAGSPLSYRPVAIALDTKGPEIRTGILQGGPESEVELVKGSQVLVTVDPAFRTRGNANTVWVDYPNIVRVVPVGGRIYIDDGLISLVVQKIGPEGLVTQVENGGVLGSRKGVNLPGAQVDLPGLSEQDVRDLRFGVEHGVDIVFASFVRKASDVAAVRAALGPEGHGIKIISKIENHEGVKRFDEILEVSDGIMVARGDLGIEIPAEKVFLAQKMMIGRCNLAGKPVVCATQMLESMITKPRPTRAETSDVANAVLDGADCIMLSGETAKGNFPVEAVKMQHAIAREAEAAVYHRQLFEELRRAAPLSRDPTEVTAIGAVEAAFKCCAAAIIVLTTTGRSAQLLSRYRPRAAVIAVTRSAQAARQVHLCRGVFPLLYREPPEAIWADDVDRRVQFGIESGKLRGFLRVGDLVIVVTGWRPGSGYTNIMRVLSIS

PKR(G332S), sequence (P30613 whole entry G332S): as the sequence (P30613 whole entry) above, with G332S counted along it
PKR(R510Q), sequence (P30613 whole entry R510Q): as the sequence (P30613 whole entry) above, with R510Q counted along it

activation at 1.54 µM (PKR(R510Q)) [%]	AC50 (PKR(R510Q)) [µM]	Emax (PKR(R510Q)) [%]	activation at 1.54 µM (PKR(G332S)) [%]	AC50 (PKR(G332S)) [µM]	Emax (PKR(G332S)) [%]	activation at 1.54 µM (PKR(wt)) [%]	AC50 (PKR(wt)) [µM]	Emax (PKR(wt)) [%]	Compound
75 to 250	1 to 40	250 to 500	75 to 250	0.1 to 1	75 to 250	75 to 250	0.1 to 1	75 to 250	O=C([C@H](O)c1ccccc1)N1CC2=C(C1)CN(S(=O)(=O)c1cccnc1)C2 [Example 4-1, (2R)-2-hydroxy-2-phenyl-1-[5-(pyridine-3-sulfonyl)-1H,2H,3H,4H,5H,6H-pyrrolo[3,4-c]pyrrol-2-yl]ethan-1-one]
75 to 250	1 to 40	75 to 250	75 to 250	1 to 40	75 to 250	75 to 250	1 to 40	75 to 250	O=C([C@H](O)c1ccccc1)N1CC2=C(C1)CN(S(=O)(=O)c1cccnc1C(F)(F)F)C2 [Example 4-2, (R)-2-hydroxy-2-phenyl-1-(5-(2-(trifluoromethyl)pyridin-3-ylsulfonyl)-4,5-dihydropyrrolo[3,4-c]pyrrol-2(1H,3H,4H)-yl)ethanone]
75 to 250	1 to 40	250 to 500	75 to 250	1 to 40	75 to 250	75 to 250	1 to 40	250 to 500	O=C(N1CCOCC1)N1CC2=C(C1)CN(S(=O)(=O)c1ccc3ncsc3c1)C2 [Example 6-1, (5-(benzo[d]thiazol-6-ylsulfonyl)-3,4,5,6-tetrahydropyrrolo[3,4-c]pyrrol-2(1H)-yl)(morpholino)methanone]
75 to 250	1 to 40	250 to 500	75 to 250	0.1 to 1	75 to 250	75 to 250	0.1 to 1	250 to 500	O=C(C1CCOCC1)N1CC2=C(C1)CN(S(=O)(=O)c1ccc3c(c1)NCCO3)C2 [Example 7-1, (5-((3,4-dihydro-2H-benzo[b][1,4]oxazin-6-yl)sulfonyl)-3,4,5,6-tetrahydropyrrolo[3,4-c]pyrrol-2(1H)-yl)(tetrahydro-2H-pyran-4-yl)methanone]
250 to 50000	0.1 to 1	250 to 500	75 to 250	≤ 0.1	75 to 250	250 to 50000	0.1 to 1	250 to 500	O=C(Cc1ccccn1)N1CC2=C(C1)CN(S(=O)(=O)c1ccc(OC(F)F)cc1)C2 [Example 8-1, 1-(5-[[4-(difluoromethoxy)benzene]sulfonyl]-1H,2H,3H,4H,5H,6H-pyrrolo[3,4-c]pyrrol-2-yl)-2-(pyridin-2-yl)ethan-1-one]
250 to 50000	≤ 0.1	250 to 500	75 to 250	≤ 0.1	75 to 250	250 to 50000	≤ 0.1	250 to 500	O=C(C(O)c1cccnc1)N1CC2=C(C1)CN(S(=O)(=O)c1ccc(OC(F)F)cc1)C2 (centres unmarked) [Example 9-1, 1-(5-[[4-(Difluoromethoxy)benzene]sulfonyl]-1H,2H,3H,4H,5H,6H-pyrrolo[3,4-c]pyrrol-2-yl)-2-hydroxy-2-(pyridin-3-yl)ethan-1-one]
75 to 250	1 to 40	250 to 500	75 to 250	1 to 40	75 to 250	75 to 250	0.1 to 1	75 to 250	O=C([C@H](O)c1ccccc1)N1CC2=C(C1)CN(S(=O)(=O)c1cccc(C(F)(F)F)n1)C2 [Example 9-3, (2R)-2-hydroxy-2-phenyl-1-[5-[6-(trifluoromethyl)pyridine-2-sulfonyl]-1H,2H,3H,4H,5H,6H-pyrrolo[3,4-c]pyrrol-2-yl]ethan-1-one]
75 to 250	1 to 40	75 to 250	75 to 250	1 to 40	75 to 250	75 to 250	1 to 40	75 to 250	O=C(N1CC2=C(C1)CN(S(=O)(=O)c1cccc3cccnc13)C2)N1CC(O)(Cc2ccccc2)C1 [Example 12-1, (3-Benzyl-3-hydroxyazetidin-1-yl)(5-(quinolin-8-ylsulfonyl)-4,5-dihydropyrrolo[3,4-c]pyrrol-2(1H,3H,4)-yl)methanone]
75 to 250	1 to 40	75 to 250	75 to 250	1 to 40	75 to 250	75 to 250	1 to 40	75 to 250	CC(=O)Nc1cc(S(=O)(=O)N2CC3=C(CN(C(=O)[C@H](O)c4ccccc4)C3)C2)ccc1F [Example 14-1, (R)—N-(2-fluoro-5-((5-(2-hydroxy-2-phenylacetyl)-3,4,5,6-tetrahydropyrrolo[3,4-c]pyrrol-2(1H)-yl)sulfonyl)phenyl)acetamide]
250 to 50000	≤ 0.1	250 to 500	75 to 250	0.1 to 1	75 to 250	250 to 50000	≤ 0.1	250 to 500	Cc1cccc(S(=O)(=O)N2CC3=C(CN(C(=O)NCc4ccccc4F)C3)C2)n1 [Example 15-1, N-[(2-fluorophenyl)methyl]-5-(6-methylpyridine-2-sulfonyl)-1H,2H,3H,4H,5H,6H-pyrrolo[3,4-c]pyrrole-2-carboxamide]
75 to 250	1 to 40	75 to 250	75 to 250	1 to 40	75 to 250	75 to 250	1 to 40	250 to 500	O=C(Cc1cccnc1)N1CC2=C(C1)CN(S(=O)(=O)c1ccccn1)C2 [Example 16-1, 2-(Pyridin-3-yl)-1-[5-(pyridine-2-sulfonyl)-1H,2H,3H,4H,5H,6H-pyrrolo[3,4-c]pyrrol-2-yl]ethan-1-one]
75 to 250	1 to 40	75 to 250	75 to 250	1 to 40	75 to 250	75 to 250	1 to 40	75 to 250	NS(=O)(=O)c1cccc(S(=O)(=O)N2CC3=C(CN(C(=O)[C@H](O)c4ccccc4)C3)C2)c1 [Example 17-1, 3-[5-[(2R)-2-hydroxy-2-phenylacetyl]-1H,2H,3H,4H,5H,6H-pyrrolo[3,4-c]pyrrole-2-sulfonyl]benzene-1-sulfonamide]

Compound	activation at 1.54 µM (PKR(R510Q)) [%]	AC50 (PKR(R510Q)) [µM]	Emax (PKR(R510Q)) [%]	activation at 1.54 µM (PKR(G332S)) [%]	AC50 (PKR(G332S)) [µM]	Emax (PKR(G332S)) [%]	activation at 1.54 µM (PKR(wt)) [%]	AC50 (PKR(wt)) [µM]	Emax (PKR(wt)) [%]
O=C([C@H](O)c1ccccc1)N1CC2=C(C1)CN(S(=O)(=O)c1ccccn1)C2 [Example 9-2, (2R)-2-hydroxy-2-phenyl-1-[5-(pyridine-2-sulfonyl)-1H,2H,3H,4H,5H,6H-pyrrolo[3,4-c]pyrrol-2-yl]ethan-1-one]	75 to 250	0.1 to 1	250 to 500	75 to 250	0.1 to 1	75 to 250	75 to 250	–	75 to 250
